Measured values reported in BindingDB's records for doi:10.1111/cbdd.12530 (Chinese Academy of Sciences, 2015).

What follows are compounds tested against Dihydroorotate dehydrogenase (quinone), mitochondrial (Homo sapiens, UniProt Q02127) (assay: DCIP-linked Assay). Conditions: pH 8.
Procedure: Recombinant human DHODH (final enzyme concentration between 20 and 60 nM in the assay well) were incubated at 37 °C in 50 mM Tris-HCl, 0.1% Triton X-100, 1 mM KCN, pH 8.0 with coenzyme Q10 (100 µM), and the tested compounds at different concentrations (final DMSO concentration 0.1% v/v). The reaction was initiatedby the addition of DHO (500 µM), and the reduction of DCIP (50 µM) was monitored through a decrease in absorbance at 650 nm.

Chain of Dihydroorotate dehydrogenase (quinone), mitochondrial (Q02127 whole entry): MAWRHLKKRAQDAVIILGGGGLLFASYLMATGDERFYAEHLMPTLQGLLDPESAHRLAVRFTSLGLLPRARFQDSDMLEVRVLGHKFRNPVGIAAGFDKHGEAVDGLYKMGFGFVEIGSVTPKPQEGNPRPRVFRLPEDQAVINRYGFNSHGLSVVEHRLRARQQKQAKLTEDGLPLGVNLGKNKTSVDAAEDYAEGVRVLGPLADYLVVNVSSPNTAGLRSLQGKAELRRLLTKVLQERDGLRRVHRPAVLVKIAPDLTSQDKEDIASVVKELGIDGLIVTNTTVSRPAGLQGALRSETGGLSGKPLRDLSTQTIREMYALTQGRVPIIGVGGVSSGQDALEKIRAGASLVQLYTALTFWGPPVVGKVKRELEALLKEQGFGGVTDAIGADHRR

Compound	IC50
O=C1N[C@@H](Cc2ccccc2)C(=O)N2C[C@H](O)C[C@@H]12 [Cyclo L-OH-Pro-L-Phe (Fr. 1-4)]	0.773 µM
O=C1N[C@@H](Cc2ccccc2)C(=O)N2CCC[C@@H]12 [Cyclo L-Pro-L-Phe (Fr. 2-2)]	> 50 µM
CC(C)C[C@@H]1NC(=O)[C@@H]2CCCN2C1=O [Cyclo L-Pro-L-Leu (Fr. 1-6)]	> 50 µM

Now from value to compound:

IC50	Compound
> 50 µM	CC[C@H](C)[C@@H]1NC(=O)[C@@H]2CCCN2C1=O [Cyclo L-Pro-L-Ile (Fr. 1-5)]
> 50 µM	CC(C)[C@@H]1NC(=O)[C@@H]2CCCN2C1=O [Cyclo L-Pro-L-Val (Fr. 2-1)]
